Data published in patent US12533300B2, “Self-assembling peptides in the prevention and treatment of cavitated carious lesions” (Credentis AG, priority 2019, dated 2026).

How the values were obtained:
[1] = Release profile of model substance Congo Red from dental materials into PBS (photometer, 500 nm); format: physicochemical
Protocol: As well-known to the person skilled in the art, a release profile of an agent, i.e. fluoride or self-assembling peptide, depends on the matrix of the material (Mousavinasab et al., 2009, Dent Res J (Isfahan) 6(2):75-81). In the following experiment, the release profile of a model substance mimicking self-assembling peptide, Congo Red, was assessed after the incorporation into the dental material. The material was prepared and applied as per instructions for use (IFU), usually describing the use of 0.5-0.75 mL of the respective products. To mimic the saliva, Phosphate Buffered Saline (PBS) was used. PBS matches the osmolarity and ion concentrations of the human body—it is isotonic. To mimic the constant saliva flux, the applied amount was placed in a solution equal to 1 h saliva flux, which is about 20 mL. The diffusion of the material was assessed at 500 nm with a photometer. Release Profile a) Preparation of Varnish (Duraphat) and Paro Amin Fluor Gelée • Per suppliers IFU, it is recommend to add 0.5-1 mL of the varnish to a carious site. The concentration of Congo Red was chosen to lead a distinct signal in the UV Vis. • Place 12 mg Congo Red in 2 mL Eppendorf tube • Add 2 mL of the varnish directly into the tube with a syringe • Mix Congo Red and varnish vigorously until content uniformity is reached • Pick up product with syringe • Place 0.5-0.75 ml of the product on a microscopic slide as a thin film—as recommended per IFU • Let it air dry—as per IFU b) Preparation of Lonofil (Glass Ionomer Restorative Material) • Place 12 mg Congo Red directly in a dental cup • Add 2 spoons of lonofil Plus as per IFU • Add 2 drops of water and mix as per IFU • Place amount of product on microscopic slide c) Incubation Prepare the PBS Solution with 1% EtOH for preservation • Place slide in 50 ml centrifugation tube • Add 20 mL of PBS • Place on rotating wheel d) Measurement and Calculation • Directly decant 1 mL of incubated fluid into UV-Cell • Measure at 500 nm, control/blank=PBS with 1% EthOH subtract control w/o Congo Red from measured value

[2] = Release profile of P11-4 from varnish and glass ionomer cement (280 nm); format: physicochemical
Protocol: The material was prepared and applied as per instructions for use (IFU), usually describing the use of 0.5-0.75 mL of the respective products. To mimic the saliva, Phosphate Buffered Saline (PBS) was used. PBS matches the osmolarity and ion concentrations of the human body—it is isotonic. To mimic the constant saliva flux, the applied amount was placed in a solution equal to 1 h saliva flux, which is about 20 mL. The diffusion of the material was assessed at 500 nm with a photometer.
Release Profile a) Preparation of Varnish (Duraphat) and Paro Amin Fluor Gelée • Per suppliers IFU, it is recommend to add 0.5-1 mL of the varnish to a carious site. The concentration of Congo Red was chosen to lead a distinct signal in the UV Vis. • Place 12 mg Congo Red in 2 mL Eppendorf tube • Add 2 mL of the varnish directly into the tube with a syringe • Mix Congo Red and varnish vigorously until content uniformity is reached • Pick up product with syringe • Place 0.5-0.75 ml of the product on a microscopic slide as a thin film—as recommended per IFU • Let it air dry—as per IFU b) Preparation of Lonofil (Glass Ionomer Restorative Material) • Place 12 mg Congo Red directly in a dental cup • Add 2 spoons of lonofil Plus as per IFU • Add 2 drops of water and mix as per IFU • Place amount of product on microscopic slide c) Incubation
Prepare the PBS Solution with 1% EtOH for preservation • Place slide in 50 ml centrifugation tube • Add 20 mL of PBS • Place on rotating wheel d) Measurement and Calculation • Directly decant 1 mL of incubated fluid into UV-Cell • Measure at 500 nm, control/blank=PBS with 1% EthOH subtract control w/o Congo Red from measured value
Example 7 was in essence carried out as Example 6, but with the self-assembling peptide P11-4, if not otherwise described. 12 mg of P11-4 (credentis AG), in monomeric form, were added to either the varnish Duraphat (Sample ID: AP) or the glass ionomer cement Aqua lonofil Plus (Sample ID BP) in the amounts and under the conditions described above. The incubation was carried out in a static manner at room temperature. Measurement was at 280 nm, and the control value for buffer without peptide was subtracted from the measured value.

[3] = Pulp capping with P11-4 solution under dental material; format: in vivo; conditions: exposed pulp covered with P11-4 solution (e.g., 100 μl, 10 mg/mL, pH 8) before Resin Composite
Protocol: A cavity exposing the pulp is excavated due to dental caries. The pulp is covered with P11-4 solution (e.g., 100 μl, 10 mg/mL, pH 8) before placing of a dental material, e.g., Resin Composite according to the manufacturer's instructions (e.g., application in layers and light curing, as appropriate).

[4] = Alkilzy et al., 2018; cited from earlier work

| Compound | Time course of Congo Red release from glass ionomer cement ([1]; Aqua Ionofil Plus, FIG. 4A) | Speed of Congo Red release from varnish relative to glass ionomer cement ([1]; Duraphat versus Aqua Ionofil Plus, FIG. 4A) | Release of Congo Red from paro Amin Fluor Gelée ([1]; Sample 2, used for comparison, 20 mL PBS with 1% EtOH, FIG. 4B) | Release of Congo Red from varnish Duraphat ([1]; sample A1, 12 mg Congo Red in 2 mL varnish, 20 mL PBS with 1% EtOH, FIG. 4A) | Release of Congo Red from glass ionomer cement Aqua Ionofil Plus ([1]; sample B1, 12 mg Congo Red, 20 mL PBS with 1% EtOH, FIG. 4A) | Speed of P11-4 release from varnish relative to glass ionomer cement ([2]; Duraphat versus Aqua Ionofil Plus, FIG. 4C) | Release of P11-4 from varnish Duraphat ([2]; sample AP, 12 mg monomeric P11-4, static incubation at room temperature, FIG. 4C) | Release of P11-4 from glass ionomer cement Aqua Ionofil Plus ([2]; sample BP, 12 mg monomeric P11-4, static incubation at room temperature, FIG. 4C) | Amount of released peptide over time ([2]; varnish and glass ionomer cement, measured for several days) | Pulp symptoms (pulpitis) after pulp capping [3] | Effect on early carious lesions in combination with fluoride, compared to fluoride alone [4] |
| --- | --- | --- | --- | --- | --- | --- | --- | --- | --- | --- | --- |
| Nc1c(/N=N/c2ccc(-c3ccc(/N=N/c4cc(S(=O)(=O)O)c5ccccc5c4N)cc3)cc2)cc(S(=O)(=O)O)c2ccccc12 [Congo red, Congo Red] | constant and increases with time | quicker | released | released | released |  |  |  |  |  |  |
| P11-4: self-assembling peptide, sequence QQRFEWEFEQQ (P11-4) |  |  |  |  |  | quicker | slowly and substantially constantly released | slowly and substantially constantly released | increases with time | remains symptoms free | additional effect |
